TGI data for 20 molecules are collected here from PubChem BioAssay (NCI).

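Cultured in 96-well plates, cells were exposed to test compound for 48 hours across five concentrations. TGI: total growth inhibition.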

What all share (test): NCI tumour cell line growth inhibition, 48 h
Assay [1] concerns ACHN renal.
The test system of assay [2] is EKVX NSCLC.
Assay [3] relates to KM12 colon.
The subject of assay [4] is LOX IMVI melanoma.
The test system of assay [5] is MDA-MB-231 breast.
Assay [6] concerns MDA-MB-435.
Assay [7] has as its system MDA-N.
Assay [8] concerns NCI/ADR-RES ovarian.
Assay [9] has as its system SK-MEL-5 melanoma.
For assay [10], the system named is SNB-75 CNS.

For the molecule `C[N+]12C=CC=C1C(N1CCCC1)c1sc(-c3ccc(Cl)cc3)cc12` (stereo not given), the TGI in assay [1] is more than 100 µM; in assay [2] it was 79 µM; in [3], 33.4 µM; in assay [4] it was 29.5 µM; in [5] it was 35.5 µM; in [6], 29.1 µM. Further, the TGI in [7] is 30.4 µM; in assay [8], more than 100 µM; in assay [9] it was 31.8 µM; in assay [10], 25.7 µM.

Consider `CC1=CC(=O)C[C@]2(C)[C@@H](O)CC(C(C)CO)C[C@@H]12` (stereo not given in full), for which the TGI in assay [1], in [2], in [3], in [4], in assay [5] and in [6] was more than 100 µM in each case. Moreover, the TGI in assay [7], in assay [8], in assay [9] and in [10] was more than 100 µM throughout.

Turning to `C=C(Cl)C(Cl)(CBr)CCC(Cl)C(C)C` (stereo not given), the TGI in assay [1] worked out at 9.52 µM; in [2] it was 27.9 µM; in assay [3], 6.11 µM; in assay [4] it was 26.2 µM; in [5] it was 9.99 µM; in [6] it was 20.6 µM. For the same molecule, the TGI in [7] came to 16.3 µM; in assay [8] it was 29.3 µM; in assay [9] it was 42.8 µM; in assay [10] it was 5.66 µM.

Turning to `Fc1ccccc1N=c1oc2ccc(Br)cc2cc1-c1nc2ccccc2[nH]1`, the TGI is 29.8 µM in assay [1]; more than 41.5 µM in assay [2]; more than 54.9 µM in [3]; more than 31.2 µM in assay [4]; 25.8 µM in assay [5]; more than 64.6 µM in assay [6]. Besides, the TGI was more than 42.6 µM in assay [7], 65.7 µM in [8], 35.7 µM in assay [9] and 4.74 µM in assay [10].

Regarding `CN1CCN(c2nc3c(c(=O)n(C)c(=O)n3C)n2C)CC1`, the TGI in assay [1], in assay [2], in assay [3], in [4], in assay [5] and in assay [6] was more than 100 µM each time. Besides, the TGI in assay [7], in [8], in assay [9] and in assay [10] was more than 100 µM throughout.

Take `CCC1(CC)C(=O)N(C(=O)c2ccc(Cl)cc2)N(C(=O)c2ccccc2Cl)C1=O`: the TGI in [1] was more than 100 µM; in [2], 24.9 µM; in assay [3], more than 100 µM; in assay [4], 50.3 µM; in [5] it was more than 100 µM; in [6], 43.9 µM. Moreover, the TGI in assay [7], in assay [8], in assay [9] and in assay [10] was more than 100 µM throughout.

Turning to `O=C1NC(N2CCCC(CO)C2)=N/C1=C\c1ccc(O)cc1` (stereo not given), the TGI in [1], in assay [2], in assay [3], in assay [4], in assay [5] and in [6] was more than 100 µM in each case. In addition, the TGI in [7], in [8], in assay [9] and in assay [10] was more than 100 µM in each case.

Take `COC(=O)C1(C(=O)OC)CC2=C(S(=O)(=O)c3ccccc3)C[C@@H](C#N)[C@H]2C1`: the TGI in [1], in assay [2], in assay [3], in assay [4], in assay [5] and in [6] was more than 100 µM throughout. Moreover, the TGI in assay [7], in [8], in [9] and in assay [10] was more than 100 µM each time.

Consider `Nc1c2ccccc2nc2ccc(C(=O)Nc3ccc(S(N)(=O)=O)cc3)cc12`, for which the TGI in assay [1], in [2], in [3], in assay [4], in [5] and in [6] was more than 100 µM in each case. The TGI in assay [7], in assay [8], in assay [9] and in [10] was more than 100 µM throughout.

On to `Cc1ccc(-c2cn3c(nc4ccccc43)c(C)n2)cc1`, for which the TGI is more than 100 µM in [1]; more than 100 µM in [2]; more than 100 µM in [3]; more than 100 µM in assay [4]; more than 100 µM in assay [5]; 97 µM in assay [6]. The TGI is more than 100 µM in [7], more than 100 µM in assay [8], 40.3 µM in assay [9] and more than 87.6 µM in assay [10].

Consider `CC(C)(C)C(=O)C(C#N)C(=O)C(C)(C)C`, for which the TGI in [1], in assay [2], in assay [3], in [4], in assay [5] and in assay [6] was more than 100 µM throughout. The TGI in [7], in [8], in [9] and in assay [10] was more than 100 µM throughout.

On to `c1ccc(C2(c3cc4ccccc4[nH]3)OCCO2)cc1`, for which the TGI in assay [1], in assay [2], in [3], in assay [4], in [5] and in assay [6] was more than 100 µM in each case. In addition, the TGI in assay [7] was more than 100 µM; in [8] it was more than 100 µM; in assay [9], 57 µM; in assay [10] it was more than 100 µM.

As for `CC(C)Oc1c(O)c2c3c(oc(=O)n3C=CC2c2ccccc2F)c1OC(C)C` (stereo not given), the TGI in assay [1] is more than 100 µM; in assay [2], more than 100 µM; in [3], more than 100 µM; in [4], 33.1 µM; in [5], more than 100 µM; in assay [6], 70 µM. The TGI in assay [7] is more than 100 µM; in assay [8] it was more than 100 µM; in assay [9], 34.2 µM; in [10], more than 100 µM.

On to `O=C1N[C@@H](c2c[nH]c3ccc(Br)cc23)C(=O)N[C@H]1c1c[nH]c2ccc(Br)cc12`, for which the TGI amounted to 15.8 µM in assay [1]; 29.7 µM in assay [2]; 18.6 µM in [3]; 20.9 µM in assay [4]; 26.3 µM in assay [5]; 16.8 µM in assay [6]. Besides, the TGI in assay [7] was 20.7 µM; in [8], more than 100 µM; in assay [9] it was 17.7 µM; in assay [10] it was 9.03 µM.

Regarding `O=S(=O)(CC#CCS(=O)(=O)c1ccccc1)c1ccccc1`, the TGI was determined as 3.25 µM in assay [1]; 12.1 µM in [2]; 28.1 µM in assay [3]; 3.32 µM in assay [4]; 26.5 µM in assay [5]; 3.83 µM in assay [6]. The TGI was 4.16 µM in assay [7], more than 83 µM in [8], 10.4 µM in assay [9] and 5.55 µM in assay [10].

Regarding `O=C1CSC(c2ccc(Cl)cc2)N1c1ccc(-n2c(-c3ccccc3)nc3ccccc3c2=O)cc1` (stereo not given), the TGI in [1], in [2], in assay [3], in assay [4], in assay [5] and in [6] was more than 100 µM each time. Also, the TGI in assay [7] is more than 100 µM; in assay [8], more than 100 µM; in [9], more than 100 µM; in assay [10], 69 µM.

For the molecule `CCC(c1ccc(N(C)C)cc1)C1NC(=S)NC1=O` (stereo not given), the TGI in assay [1], in [2], in assay [3], in assay [4], in assay [5] and in [6] was more than 100 µM each time. Also, the TGI in assay [7], in assay [8], in assay [9] and in assay [10] was more than 100 µM throughout.

Consider `COc1cc2c(cc1C)NC(=O)/C2=C/c1c(Cl)n(C)c2ccccc12`, for which the TGI in assay [1] was 25.7 µM; in [2], 28.1 µM; in assay [3], 16.6 µM; in assay [4] it was 22.7 µM; in assay [5], 65.1 µM; in [6] it was 3.69 µM. Further, the TGI is 5.53 µM in assay [7], 24.6 µM in assay [8], 22 µM in [9] and 13.4 µM in [10].

Turning to `COc1cccc(C(=O)C(O)c2cccc(OC)c2OC)c1OC` (stereo not given), the TGI in [1], in assay [2], in assay [3], in assay [4], in [5] and in assay [6] was more than 100 µM throughout. Besides, the TGI in assay [7], in assay [8], in [9] and in assay [10] was more than 100 µM each time.

For the molecule `COCN1C(=O)[C@@H]2C[C@@H](OC/C=C/CBr)CN2C(=O)c2ccccc21`, the TGI in assay [1] worked out at 54.8 µM; in assay [2], 50.4 µM; in assay [3], 63.5 µM; in [4], 13.1 µM; in [5] it was 55.1 µM; in assay [6], 50.9 µM. The TGI in assay [7] is 40.3 µM; in assay [8], more than 100 µM; in [9] it was 34.8 µM; in assay [10], 27.9 µM.
